pIC50: −log10 of the molar value.
Biological target: T1, Mismatch repair endonuclease PMS2 (UniProt P54278)
T1 sequence (P54278 whole entry): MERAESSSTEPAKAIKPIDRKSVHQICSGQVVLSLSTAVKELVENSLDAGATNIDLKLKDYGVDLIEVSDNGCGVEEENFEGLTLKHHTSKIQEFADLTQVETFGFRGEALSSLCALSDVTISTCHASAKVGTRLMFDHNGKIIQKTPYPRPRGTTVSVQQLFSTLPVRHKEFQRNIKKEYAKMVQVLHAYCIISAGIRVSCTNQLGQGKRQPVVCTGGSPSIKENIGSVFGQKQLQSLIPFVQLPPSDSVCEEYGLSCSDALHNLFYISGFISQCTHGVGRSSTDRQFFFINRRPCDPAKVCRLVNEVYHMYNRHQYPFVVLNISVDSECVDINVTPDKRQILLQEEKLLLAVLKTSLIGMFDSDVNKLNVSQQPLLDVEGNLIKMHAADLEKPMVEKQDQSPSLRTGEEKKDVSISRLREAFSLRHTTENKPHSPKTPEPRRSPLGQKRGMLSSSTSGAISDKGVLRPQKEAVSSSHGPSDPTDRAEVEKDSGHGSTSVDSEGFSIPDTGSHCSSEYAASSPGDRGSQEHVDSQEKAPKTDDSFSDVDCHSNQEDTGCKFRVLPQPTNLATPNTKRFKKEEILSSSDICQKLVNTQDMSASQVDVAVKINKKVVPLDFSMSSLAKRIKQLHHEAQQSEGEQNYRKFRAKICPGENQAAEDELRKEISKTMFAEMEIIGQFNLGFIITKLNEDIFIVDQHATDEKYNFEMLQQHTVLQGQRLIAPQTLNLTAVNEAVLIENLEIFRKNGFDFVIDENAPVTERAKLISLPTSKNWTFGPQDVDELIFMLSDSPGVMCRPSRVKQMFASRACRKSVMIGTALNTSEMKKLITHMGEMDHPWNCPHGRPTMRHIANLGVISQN
Assay: Fluorescence Polarization Assay for PMS2

pIC50: < 6.00
Compound: C=C(CN(C)C)C(=O)Nc1cccc2c1CN(C(=O)c1c(O)cc(O)c(C)c1OC)C2 [US20240425453, Example 36]
